Measured values taken from patent publication US20230141403A1 (Hoffmann-La Roche Inc., priority 2020, published 2023).
Counter-ions that a name gives are not always drawn.

The compounds below were run on Acinetobacter baumannii ATCC17961 (assay: Antimicrobial susceptibility testing: 90% growth inhibitory concentration (IC90) determination). Conditions: 90% growth inhibitory concentration; Iso-Sensitest broth, optical density at 600 nm over 16h, 35±2° C.; read-out: AB ATCC 17961 IC90.
Assay type: cell-based
Method: Antimicrobial Susceptibility Testing:
90% Growth Inhibitory Concentration (IC90) Determination
The in vitro antimicrobial activity of the compounds was determined according to the following procedure:
The assay used a 10-points Iso-Sensitest broth medium to measure quantitatively the in vitro activity of the compounds against Acinetobacter baumannii ATCC17961 or ATCC17978.
Stock compounds in DMSO were serially twofold diluted (e.g. range from 50 to 0.097 μM final concentration) in 384 wells microtiter plates and inoculated with 49 μl the bacterial suspension in Iso-Sensitest medium to have a final cell concentration of ˜5×10^(5) CFU/ml in a final volume/well of 50 ul/well. Microtiter plates were incubated at 35±2° C.
Bacterial cell growth was determined with the measurement of optical density at λ=600 nm each 20 minutes over a time course of 16h. Growth inhibition was calculated during the logarithmic growth of the bacterial cells with determination of the concentration inhibiting 50% (IC50) and 90% (IC90) of the growth.
Table 2 provides the 90% growth inhibitory concentrations (IC90) in micromoles per liter of the compounds of present invention obtained against the strain Acinetobacter baumannii ATCC17961.

With `CN=S(C)(=O)c1ccc(Nc2nccn3c(-c4ccc(OC)c(F)c4F)cnc23)cc1C` (stereo not shown) [Example 66, 3-(2,3-difluoro-4-methoxyphenyl)-N-(4-(N,S-dimethylsulfonimidoyl)-3-methylphenyl)imidazo[1,2-a]pyrazin-8-amine] the IC90 was 0.16 µM.

Same assay, conditions: Acinetobacter baumannii, ATCC17961, 16 h, 90% growth inhibitory concentration; Iso-Sensitest broth, optical density at 600 nm over 16h, 35±2° C.; read-out: AB ATCC 17961 IC90

`COc1ccc(-c2cnc3c(Nc4ccc(NC(C)=O)c(Cl)c4)nccn23)cc1` [Example 39, N-(2-chloro-4-((3-(4-methoxyphenyl)imidazo[1,2-a]pyrazin-8-yl)amino)phenyl)acetamide] and `O=C1CCCN1c1ccc(Nc2nccn3c(-c4ccc(OC(F)F)cc4)cnc23)cc1Cl` [Example 94, 1-(2-chloro-4-((3-(4-(difluoromethoxy)phenyl)imidazo[1,2-a]pyrazin-8-yl)amino)phenyl)pyrrolidin-2-one] are within 1.5-fold of each other in IC90: 0.1 µM for the first, 0.12 µM for the second.

Compared with `COc1ccc(-c2cnc3c(Nc4ccc(N5CCCC5=O)cc4)nccn23)cc1F` [Example 48, 1-(4-((3-(3-fluoro-4-methoxyphenyl)imidazo[1,2-a]pyrazin-8-yl)amino)phenyl)pyrrolidin-2-one], `CN=S(C)(=O)c1ccc(Nc2nccn3c(-c4ccc(OC)c(F)c4F)cnc23)cc1` (stereo not shown) [Example 69, 3-(2,3-difluoro-4-methoxyphenyl)-N-(4-(N,S-dimethylsulfonimidoyl)phenyl)imidazo[1,2-a]pyrazin-8-amine] is 2.6-fold higher in IC90: 0.076 µM for the first, 0.2 µM for the second.

Compared with `NCCCCCC1CC(=O)N(c2ccc(Nc3nccn4c(-c5ccc(OC(F)F)cc5)cnc34)cc2)C1` (stereo not shown) [Example 62, 4-(5-aminopentyl)-1-(4-((3-(4-(difluoromethoxy)phenyl)imidazo[1,2-a]pyrazin-s-yl)amino)phenyl)pyrrolidin-2-one], `NCCCCC1CC(=O)N(c2ccc(Nc3nccn4c(-c5ccc(OC(F)F)cc5)cnc34)cc2)C1` (stereo not shown) [Example 63, 4-(4-aminobutyl)-1-(4-((3-(4-(difluoromethoxy)phenyl)imidazo[1,2-a]pyrazin-8-yl)amino)phenyl)pyrrolidin-2-one] is 2.6-fold lower in IC90: 0.094 µM for the first, 0.036 µM for the second.

`NCCOCC1CC(=O)N(c2ccc(Nc3nccn4c(-c5ccc(OC(F)F)cc5)cnc34)cc2)C1` (stereo not shown) [Example 64, 4-((2-aminoethoxy)methyl)-1-(4-((3-(4-(difluoromethoxy)phenyl)imidazo[1,2-a]pyrazin-8-yl)amino)phenyl)pyrrolidin-2-one] and `CN=S(=O)(CCCN)c1ccc(Nc2nccn3c(-c4ccc(OC)c(F)c4F)cnc23)cc1` (stereo not shown) [Example 71, N-(4-(3-amino-N-methylpropylsulfonimidoyl)phenyl)-3-(2,3-difluoro-4-methoxyphenyl)imidazo[1,2-a]pyrazin-8-amine] are within 1.5-fold of each other in IC90: 0.12 µM for the first, 0.086 µM for the second.

`CN=S(=O)(CCCN)c1ccc(Nc2nccn3c(-c4ccc(OC)c(F)c4F)cnc23)cc1C` (stereo not shown) [Example 72, N-(4-(3-amino-N-methylpropylsulfonimidoyl)-3-methylphenyl)-3-(2,3-difluoro-4-methoxyphenyl)imidazo[1,2-a]pyrazin-8-amine] and `COc1ccc(-c2cnc3c(Nc4ccc(S(=O)(=O)NCCOCCN)c(C)c4)nccn23)c(F)c1F` [Example 100, N-(2-(2-aminoethoxy)ethyl)-4-((3-(2,3-difluoro-4-methoxyphenyl)imidazo[1,2-a]pyrazin-8-yl)amino)-2-methylbenzenesulfonamide hydrochloride] are the same in IC90: 0.12 µM for the first, 0.12 µM for the second.

First: CN=S(=O)(c1ccc(Nc2nccn3c(-c4ccc(OC)c(F)c4F)cnc23)cc1C)C1CCN(C(=O)[C@@H]2C[C@@H](O)CN2)CC1 (stereo partly drawn) [Example 73, (4-(4-((3-(2,3-difluoro-4-methoxyphenyl)imidazo[1,2-a]pyrazin-8-yl)amino)-N,2-dimethylphenylsulfonimidoyl)piperidin-1-yl)((2S,4R)-4-hydroxypyrrolidin-2-yl)methanone]
Second: CN=S(=O)(c1ccc(Nc2nccn3c(-c4ccc(OC)c(F)c4F)cnc23)cc1)C1CCN(C(=O)[C@@H]2C[C@@H](O)CN2)CC1 (stereo partly drawn) [Example 74, (4-(4-((3-(2,3-difluoro-4-methoxyphenyl)imidazo[1,2-a]pyrazin-8-yl)amino)-N-methylphenylsulfonimidoyl)piperidin-1-yl)((2S,4R)-4-hydroxypyrrolidin-2-yl)methanone]
The IC90 of the first is 2.2-fold higher: 0.33 µM for the first, 0.15 µM for the second.

First: COc1ccc(-c2cnc3c(Nc4ccc(S(=O)(=O)NCCOCCN(C)C)c(Cl)c4)nccn23)c(F)c1F [Example 97]
Second: COc1ccc(-c2cnc3c(Nc4ccc(S(=O)(=O)NCCOCCN(C)C)c(C)c4)nccn23)c(F)c1F [Example 99, 4-((3-(2,3-difluoro-4-methoxyphenyl)imidazo[1,2-a]pyrazin-8-yl)amino)-N-(2-(2-(dimethylamino)ethoxy)ethyl)-methylbenzene sulfonamide]
The IC90 of the first is 1.6-fold lower: 0.18 µM for the first, 0.28 µM for the second.

`COc1ccc(-c2cnc3c(Nc4ccc(S(=O)(=O)N5CCN(CCCN(C)C)CC5)c(C)c4)nccn23)c(F)c1F` [Example 98] and `CCc1cc(Nc2nccn3c(-c4ccc(OC)c(F)c4F)cnc23)ccc1S(=O)(=O)N1CCN(C(=O)CN(C)C)CC1` [Example 104, 1-(4-((4-((3-(2,3-difluoro-4-methoxyphenyl)imidazo[1,2-a]pyrazin-8-yl)amino)-2-ethylphenyl)sulfonyl)piperazin-1-yl)-2-(dimethylamino)ethan-1-one] are within 1.5-fold of each other in IC90: 0.29 µM for the first, 0.34 µM for the second.

Compared with `COc1ccc(-c2cnc3c(Nc4ccc(S(=O)(=O)NCCOCCN)c(Cl)c4)nccn23)c(F)c1F` [Example 101, N-(2-(2-aminoethoxy)ethyl)-2-chloro-4-((3-(2,3-difluoro-4-methoxyphenyl)imidazo[1,2-a]pyrazin-8-yl)amino) benzenesulfonamide hydrochloride], `CCc1cc(Nc2nccn3c(-c4ccc(OC)c(F)c4F)cnc23)ccc1S(=O)(=O)N1CCNCC1` [Example 103, 3-(2,3-difluoro-4-methoxyphenyl)-N-(3-ethyl-4-(piperazin-1-ylsulfonyl)phenyl) imidazo[1,2-a]pyrazin-8-amine hydrochloride] is 6.4-fold higher in IC90: 0.078 µM for the first, 0.5 µM for the second.

Compared with `CCc1cc(Nc2nccn3c(-c4ccc(OC)c(F)c4F)cnc23)ccc1S(=O)(=O)N1CCN(C(=O)[C@@H]2CCCN2)CC1` [Example 105, (S)(4-(4-((3-(2,3-difluoro-4-methoyphenyl)imidazo[1,2-a]pyrazin-8-yl)amino)-2-ethylphenyl)sulfonyl)piperazin-1-yl)(pyrrolidin-2-yl)methanone hydrochloride], `CCc1cc(Nc2nccn3c(-c4ccc(OC)c(F)c4F)cnc23)ccc1S(=O)(=O)N1CCN(C(=O)[C@@H]2CCNC2)CC1` [Example 107, (R)-(4-(4-((3-(2,3-difluoro-4-methoxyphenyl)imidazo[1,2-a]pyrazin-8-yl)amino)-2-ethylphenyl)sulfonyl) piperazin-1-yl)(pyrrolidin-3-yl)methanone hydrochloride] is 1.5-fold lower in IC90: 0.31 µM for the first, 0.2 µM for the second.

`CCc1cc(Nc2nccn3c(-c4ccc(OC)c(F)c4F)cnc23)ccc1S(=O)(=O)N1CCN(C(=O)[C@@H]2C[C@@H](O)CN2)CC1` [Example 106, (4-((4-((3-(2,3-difluoro-4-methoxyphenyl)imidazo [1,2-a]pyrazin-8-yl)amino)-2-ethylphenyl)sulfonyl)piperazin-1-yl)((2S,4R)-4-hydroxypyrrolidin-2-yl)methanone hydrochloride] and `CCc1cc(Nc2nccn3c(-c4ccc(OC)c(F)c4F)cnc23)ccc1S(=O)(=O)N1CCN(C(=O)C2CCNCC2)CC1` [Example 108, (4-((4-((3-(2,3-difluoro-4-methoxyphenyl)imidazo[1,2-a]pyrazin-8-ylamino)-2-ethylphenyl)sulfonyl)piperazin-1-yl)(piperidin-4-yl)methanone hydrochloride] are within 1.5-fold of each other in IC90: 0.25 µM for the first, 0.22 µM for the second.

Same assay, conditions: Acinetobacter baumannii, ATCC17961, 16 h, read-out: AB ATCC 17961 IC90 (uM)

Going from `COc1ccc(-c2cnc3c(Nc4ccc(S(C)(=O)=NCCCN)c(C)c4)nccn23)c(F)c1F` (stereo not shown) [Example 67, N-[4-[N-(3-aminopropyl)-S-methyl-sulfonimidoyl]-3-methyl-phenyl]-3-(2,3-difluoro-4-methoxy-phenyl)imidazo[1,2-a]pyrazin-8-amine; formic acid] to `CCc1cc(Nc2nccn3c(-c4ccc(OC)c(F)c4F)cnc23)ccc1S(C)(=O)=NCCCN` (stereo not shown) [Example 70, N-[4-[N-(3-aminopropyl)-S-methyl-sulfonimidoyl]-3-ethyl-phenyl]-3-(2,3-difluoro-4-methoxy-phenyl)imidazo[1,2-a]pyrazin-8-amine; formic acid], the IC90 rises from 0.12 µM to 0.19 µM (1.6-fold).

`COc1ccc(-c2cnc3c(Nc4ccc(S(C)(=O)=NCCCN)cc4)nccn23)c(F)c1F` (stereo not shown) [Example 68, N-[4-[N-(3-aminopropyl)-S-methyl-sulfonimidoyl]phenyl]-3-(2,3-difluoro-4-methoxy-phenyl)imidazo[1,2-a]pyrazin-8-amine; formic acid] and `COc1ccc(-c2cnc3c(Nc4ccc(S(=O)(=O)NCCOCCN)cc4)nccn23)c(F)c1F` [Example 102, N-(2-(2-aminoethoxy)ethyl)-4-(3-(2,3-difluoro-4-methoxyphenyl)imidazo [1,2-a]pyrazin-8-yl)amino) benzenesulfonamide hydrochloride] are within 1.5-fold of each other in IC90: 0.43 µM for the first, 0.39 µM for the second.

`COc1ccc(-c2cnc3c(Nc4ccc(S(=O)(=O)N5CCN(CCCN(C)C)CC5)c(Cl)c4)nccn23)c(F)c1F` [Example 96, N-(3-chloro-4-((4-(3-(dimethylamino)propyl)piperazin-1-yl)sulfonyl)phenyl)-3-(2,3-difluoro-4-methoxyphenyl)imidazo[1,2-a]pyrazin-8-amine] was tested, and the IC90 was 0.2 µM.
